Columns and labels:
[1] = test system: R3230AC rat mammary adenocarcinoma; assay: Tumour imaging using hyperpolarised 13C-pyruvate as imaging agent (13C-MR imaging of tumour-bearing rats); assay type: in vivo
Procedure: R3230AC is a rat mammary adenocarcinoma that can be maintained in female Fischer 344 rats. To establish the animal tumour model, a frozen vial of R32030 cells containing RPMI 1640, 10% FBS and 10% DMSO was rapidly thawed in 37° C. Thereafter, the cell solution was transferred to FBS and increasing volumes of RPMI 1640 were added. Finally, the cell suspension was transferred to a 25 cm^2growth flask and put into an incubator at 37° C., 5% CO2. Growth media were changed every other day. At the day of rat infection, removal of cells was carried out either by mechanical force or by means of trypsin. Cells were washed using phosphate buffer lacking calcium and magnesium. Trypsin (0.05% trypsin in 0.02% EDTA) was added for 2-5 min. Then, 5 ml FBS was added and the cells were transferred into a beaker containing RPMI 1640 with FCS and antibiotics (100 IU/ml penicillin, 100 IU/ml streptomycin and 2.5 µg/ml amphotericin […]). The cell solution was centrifugated and the cell pellet was resuspended in 20 ml RPMI with FBS and antibiotics, centrifugation and resuspension was repeated. The cells were then aliquoted to vials containing 4×10^6 cells/ml RPMI 1640. To obtain donor tumours, female Fischer 344 rats (Charles River, 180-200 g) were anaesthetised and 0.3 ml of the cell suspension was subcutaneously injected in the inguinal region on both sides. 15 and 22 days later, pieces of tumour were prepared as described in F. A. Burgener et al., Invest Radiol 2216 (1987), 472-478; S. Saini et al., J. Magn. Reson, 129/1 (1997), 35-43). Two incisions were made on the ventral abdomen of recipient female Fischer rats. A tumour piece was inserted into each pocket and the incisions were closed. Rats were brought to imaging 12-14 days after tumour engrafting.
Weighed rats were anaesthetised using isoflurane (2-3%) and kept on a heated table to ensure a body temperature of about 37° C. A catheter was introduced into the tail vein and into the arteria carotis communis sinistra. The rats were transported to the MR machine and placed on a home-built pad that was heated to approx. 37° C. by means of circulating FC-104 Fluorinert. This liquid will not give rise to background signals in ^1H- and ^13C-MR imaging. Anaesthesia was continued by means of 1-2% isoflurane delivered via a long tube to an open-breathing system at a rate of 0.4 L/min. The arterial catheter was connected via a T-tube to a pressure recorder and a pump delivering saline (rate […]) to prevent catheter clotting. Rats were positioned in a rat MR coil (Rapid Biomedical, Germany) and imaging using a standard proton MR imaging sequence to get anatomical information and to determine the location of the tumour.
Based on the proton frequency found by the MR system the MR frequency for ^13C1-alanine was calculated according to the following equation: Frequency ^13C1-alanine=0.25144×[(system frequency proton×1.00021)−0.000397708]
The frequency calculated positioned the MR signal arising from ^13C1-alanine on resonance with ^13C1-lactate on the left and ^13C1-pyruvate resonating on the right of ^13C1-alanine. An unlocalised MR spectroscopy sequence was run to ensure that the ^13C-MR coil and the system MR frequency had been set up correctly. The ^13C-image location was positioned to cover the tumour (slice thickness 10 mm, in plane pixel size 5×5 mm^2). In the reconstruction phase, the image data was zero-filled to result in 2.5×2.5×10 mm^3 resolution. ^13C1-pyruvate in TRIS buffer (90 mM) was injected in a dose of 10 ml/kg during a period of 12 s with a minimum volume of 2 ml into the tail vein and 30 s after the start of the injection (i.e. 18 s after finishing the injection), the chemical shift ^13C-MR sequence was started. 5.4 Analysis of the MR Imaging Data
In the reconstruction phase, the matrix was zero-filled to 32×32, a mathematical operation that helps to improve the spatial resolution. […]

[2] = DNP polarisation of 13C1-pyruvic acid, solid-state 13C-NMR DNP enhancement; assay type: physicochemical; details: 20 mM Tris(8-carboxy-2,2,6,6-tetra(hydroxyethoxy)methyl-benzo[1,2-d:4,5-d']bis(1,3)dithiole-4-yl)methyl sodium salt; 1.2 K, 3.35 T, 93.950 GHz; from thermal equilibrium and enhanced NMR signal
Procedure: A 20 mM solution was prepared by dissolving Tris(8-carboxy-2,2,6,6-tetra(hydroxyethoxy)methyl-benzo[1,2-d:4,5-d′]-bis-(1,3)-dithiole-4-yl)methyl sodium salt in ^13C1-pyruvic acid (83.1 mg). The sample was mixed to homogeneity, placed in a sample cup and inserted in the DNP polariser. The sample was polarised under DNP conditions at 1.2 K in a 3.35 T magnetic field under irradiation with microwave (93.950 GHz). The ^13C-NMR signal from the sample was acquired using a Varian Inova-200 NMR spectrometer. The DNP enhancement was calculated from a measurement of the thermal equilibrium ^13C-NMR signal and the enhanced NMR signal. 16% ^13C polarisation was obtained.

[3] = rat, R3230AC tumours, 90 mM in TRIS, 10 ml/kg i.v. tail vein, imaging 30 s after start of injection

## CC(=O)[13C](=O)[O-].[Na+] [^13C1-pyruvate, sodium ^13C1-pyruvate]
[1]; discrimination of tumour and healthy tissue, 26 tumours in 17 rats
  overall rate of success: 100%
[1]; injected solution, mean ±SD
  pH: 8.08±0.14
[1]; mean ±SD, solution in TRIS buffer injected into rats
  average polarisation at the time of injection: 21.2±2.9%
[1]; [3]
  metabolic contrast in the tumour area, lactate signal: 24 out of 26
  metabolic contrast in the tumour area, lactate signal, alanine corrected: 26 out of 26
  metabolic contrast in the tumour area, lactate signal, pyruvate corrected: 26 out of 26

## CC(=O)[13C](=O)O [^13C1-pyruvic acid]
[2]
  13C polarisation: 16%
